Assay results as given in patent publication US20260224563A1, “CRYSTALLINE FORMS OF 6-(3-((5-CHLORO-2-METHOXYPYRIDINE)-3-SULFONAMIDO)-2,6-DIFLUOROPHENYL)-N-METHYLIMIDAZO[1,5-A]PYRAZINE-1-CARBOXAMIDE AND METHODS FOR USING THE SAME” (HIBERCELL, INC., priority 2023, published 2026).
Where two headings read alike, the source gives them in different places.

Assay: Multicenter, open-label, Phase 1a/b study of HC-7366 in subjects with advanced solid tumors (safety, PK)
Assay type: in vivo
Settings: for AUC(0-t) / Vd/F / Tmax / Cmax / half-life / % AUCextrap / CL/F / DAUC0-24 / DAUC0-last / DAUC0-∞ / DCmax / tlast / LR / AUC / AUC(0-inf): human; for AUC(0-t) / Vd/F / Tmax / Cmax / half-life / AUC / AUC(0-inf): plasma; for AUC(0-t) / Vd/F / Tmax / Cmax / half-life: po; for Vd/F: read-out: Vz/F; for LR: linearity ratio; for AUC: read-out: AUC0-τ
Excerpt: Identify the maximum tolerated dose (MTD) and/or recommended Phase 2 dose (RP2D) of HC-7366, and evaluate the safety, tolerability, and dose-limiting toxicities (DLTs) of HC-7366 using Form III of the potassium salt of the compound of formula (I) (see Example 6, also referred to within this example as HC-7366-K), in subjects with advanced solid tumors, including: • a. occurrence of DLTs • b. incidence and severity of treatment-emergent adverse events (TEAEs) and treatment related TEAEs according to National Cancer Institute Common Terminology Criteria for Adverse Events (NCI CTCAE) v 5.0 • c. incidence of TEAEs leading to premature discontinuation • d. incidence of laboratory abnormalities, based on NCI CTCAE grades of hematology, serum chemistry, and urinalysis test results • e. incidence of abnormalities observed in 12 lead ECG parameters • f. incidence of abnormalities observed in vital signs measurements
Determine plasma concentration and pharmacokinetic (PK) parameters following treatment with HC-7366 using Form III of the potassium salt of the compound of formula (I) (see Example 6, also referred to within this example as HC-7366-K).
Preliminarily assess the potential antitumor activity of HC-7366 in terms of response rate, disease stabilization, and survival outcomes by assessing: • a. Overall response rate (ORR) to HC-7366 using response evaluation criteria in solid tumors (iRECIST) • b. Duration of response (DOR) to HC-7366 using iRECIST • c. Time to treatment failure (TTF) • d. Progression free survival (PFS) using iRECIST • e. Overall survival (OS)
This is a first in human, multicenter, open label, Phase 1a and 1b dose-escalation and dose-expansion study to establish the maximum tolerated dose, recommended Phase 2 dose, and evaluate the safety and tolerability of QD oral dosing of HC 7366 in a dose escalating fashion in subjects with advanced solid tumors. Up to 40 subjects were enrolled into the Phase 1a dose-escalation part of the study. The study was conducted in the United States at approximately 7 to 10 sites.
Every effort was made to ensure approximately 50% of all subjects enrolled into Phase 1a of this study are subjects with the tumors of special interest including squamous cell carcinoma of the head and neck, colorectal cancer, non-small cell lung cancer, and transitional cell carcinoma of the bladder. […] All subjects in Phase 1b enrolled with clear cell renal cell carcinoma. The Phase 1a study followed a traditional 3+3 design. The starting dose level was 10 mg QD, escalating to 20, 40, 75, 125, and 150 mg QD as safety allows. All doses were administered in the fasting state with water at least 1 hour before food or at least 2 hours after food.
The Phase 1b dose-expansion was at a single dose level of 75 mg based on the safety, tolerability, PK/PD results from Phase 1a to obtain additional safety and preliminary efficacy information. Up to 30 subjects were enrolled in the Phase 1b portion of the study at the 75 mg dose. Replacement patients were enrolled as necessary. Subjects were dosed until unacceptable toxicity, disease progression per immune-related Response Evaluation Criteria in Solid Tumors, discontinuation of treatment for other protocol allowed reason (eg, subject refusal), any other administrative reasons, or after 2 years of treatment, whichever occurs first.
For scheduling purposes, dosing in Phase 1a and 1b occurred in 3 week cycles and computed tomography scans were conducted once every 6 weeks from Cycle 1/Day 1, with the first postbaseline scan after 6 weeks of dosing (precycle 3) until confirmed disease progression, death, start of new anticancer therapy, withdrawal of consent, or end of study, whichever occurs first.
Subjects of Phase 1a and 1b spent Cycle 1/Day 1 (C1D1) in the clinic followed by an optional overnight stay for safety monitoring and PK sampling. Subjects were hospitalized (optional) for administration of the first 2 doses: C1D1 and Cycle 1/Day 2 (C1D2). […]

[1] = 75 mg, multiple once daily oral 75 mg (N = 7), Cycle 1 Day 21, geometric mean
[2] = 75 mg, single oral dose 75 mg (N = 10), Cycle 1 Day 1, geometric mean
[3] = 125 mg, multiple once daily oral 125 mg (N = 1), Cycle 1 Day 21
[4] = 125 mg, single oral dose 125 mg (N = 6), Cycle 1 Day 1, geometric mean
[5] = single oral dose 10 mg (N = 3), Cycle 1 Day 1, geometric mean
[6] = single oral dose 20 mg (N = 3), Cycle 1 Day 1, geometric mean
[7] = single oral dose 40 mg (N = 11), Cycle 1 Day 1, geometric mean
[8] = single oral dose 75 mg (N = 10), Cycle 1 Day 1, geometric mean
[9] = single oral dose 125 mg (N = 6), Cycle 1 Day 1, geometric mean
[10] = multiple once daily oral 10 mg (N = 3), Cycle 1 Day 21, geometric mean
[11] = multiple once daily oral 20 mg (N = 3), Cycle 1 Day 21, geometric mean
[12] = multiple once daily oral 40 mg (N = 8), Cycle 1 Day 21, geometric mean
[13] = multiple once daily oral 75 mg (N = 7), Cycle 1 Day 21, geometric mean
[14] = multiple once daily oral 125 mg (N = 1), Cycle 1 Day 21

`CNC(=O)c1ncn2cc(-c3c(F)ccc(NS(=O)(=O)c4cc(Cl)cnc4OC)c3F)ncc12` [HC-7366, 6-(3-((5-chloro-2-methoxypyridine)-3-sulfonamido)-2,6-difluorophenyl)-N-methylimidazo[1,5-a]pyrazine-1-carboxamide] showed an AUC(0-t) (40 mg, single oral dose 40 mg (N = 11), Cycle 1 Day 1, geometric mean, read-out: AUC0-24) of 52900 ng·h/mL, an AUC(0-t) (40 mg, single oral dose 40 mg (N = 11), Cycle 1 Day 1, geometric mean, read-out: AUC0-last) of 52900 ng·h/mL and a Vd/F (40 mg, single oral dose 40 mg (N = 11), Cycle 1 Day 1, geometric mean) of 10.5 L. It also gave a Tmax (40 mg, single oral dose 40 mg (N = 11), Cycle 1 Day 1, median) of 2 h, a Cmax [1] of 14300 ng/mL and a half-life [1] of 17.8 h. For the same compound, the AUC(0-t) (75 mg, multiple once daily oral 75 mg (N = 7), Cycle 1 Day 21, geometric mean, read-out: AUC0-last) was 166000 ng·h/mL, the Vd/F [1] was 9.51 L and the Tmax (75 mg, multiple once daily oral 75 mg (N = 7), Cycle 1 Day 21, median) was 2 h. The Cmax [2] was 10200 ng/mL, the half-life [2] was 15.2 h and the AUC(0-t) (75 mg, single oral dose 75 mg (N = 10), Cycle 1 Day 1, geometric mean, read-out: AUC0-24) was 100000 ng·h/mL. It also gave an AUC(0-t) (75 mg, single oral dose 75 mg (N = 10), Cycle 1 Day 1, geometric mean, read-out: AUC0-last) of 100000 ng·h/mL, a Vd/F [2] of 11.2 L and a Tmax (75 mg, single oral dose 75 mg (N = 10), Cycle 1 Day 1, median) of 2 h. It also gave a Cmax [3] of 38200 ng/mL, a half-life [3] of 16.5 h and an AUC(0-t) (125 mg, multiple once daily oral 125 mg (N = 1), Cycle 1 Day 21, read-out: AUC0-last) of 260000 ng·h/mL. For the same compound, the Vd/F [3] was 7.4 L, the Cmax [4] was 18800 ng/mL and the half-life [4] was 14 h. For the same compound, the AUC(0-t) (125 mg, single oral dose 125 mg (N = 6), Cycle 1 Day 1, geometric mean, read-out: AUC0-24) was 216000 ng·h/mL, the AUC(0-t) (125 mg, single oral dose 125 mg (N = 6), Cycle 1 Day 1, geometric mean, read-out: AUC0-last) was 204000 ng·h/mL and the Vd/F [4] was 7.85 L. The Tmax (125 mg, single oral dose 125 mg (N = 6), Cycle 1 Day 1, median) was 2 h, the “% AUCextrap” value [5] was 22.7% and the CL/F [5] was 0.508 L/h. For the same compound, the DAUC0-24 [5] was 1510 ng·h/mL/mg, the DAUC0-last [5] was 1510 ng·h/mL/mg and the “DAUC0-∞” value [5] was 1970 ng·h/mL/mg. The DCmax [5] was 145 ng/mL/mg, the tlast (single oral dose 10 mg (N = 3), Cycle 1 Day 1, median) was 24.00 h and the “% AUCextrap” value [6] was 17.9%. The CL/F [6] was 0.544 L/h, the DAUC0-24 [6] was 1440 ng·h/mL/mg and the DAUC0-last [6] was 1440 ng·h/mL/mg. For the same compound, the “DAUC0-∞” value [6] was 1840 ng·h/mL/mg, the DCmax [6] was 116 ng/mL/mg and the tlast (single oral dose 20 mg (N = 3), Cycle 1 Day 1, median) was 24.00 h. The “% AUCextrap” value [7] was 31.0%, the CL/F [7] was 0.491 L/h and the DAUC0-24 [7] was 1320 ng·h/mL/mg. The DAUC0-last [7] was 1320 ng·h/mL/mg, the “DAUC0-∞” value [7] was 2040 ng·h/mL/mg and the DCmax [7] was 113 ng/mL/mg. For the same compound, the tlast (single oral dose 40 mg (N = 11), Cycle 1 Day 1, median) was 24.00 h, the “% AUCextrap” value [8] was 30.2% and the CL/F [8] was 0.508 L/h. The DAUC0-24 [8] was 1340 ng·h/mL/mg, the DAUC0-last [8] was 1340 ng·h/mL/mg and the “DAUC0-∞” value [8] was 1970 ng·h/mL/mg. For the same compound, the DCmax [8] was 136 ng/mL/mg, the tlast (single oral dose 75 mg (N = 10), Cycle 1 Day 1, median) was 24.00 h and the “% AUCextrap” value [9] was 33.6%. For the same compound, the CL/F [9] was 0.390 L/h, the DAUC0-24 [9] was 1730 ng·h/mL/mg and the DAUC0-last [9] was 1630 ng·h/mL/mg. The “DAUC0-∞” value [9] was 2570 ng·h/mL/mg, the DCmax [9] was 150 ng/mL/mg and the tlast (single oral dose 125 mg (N = 6), Cycle 1 Day 1, median) was 24.00 h. The LR [10] was 1.11, the LR [11] was 1.14 and the LR [12] was 1.11. The LR [13] was 1.22, the LR [14] was 0.759 and the “subjects who discontinued treatment due to an AE” value (of 34 treated subjects, 10 to 125 mg cohorts) was 5 subjects. It also gave an AUC [10] of 21900 ng·h/mL, an AUC [11] of 41900 ng·h/mL and an AUC [12] of 99300 ng·h/mL. For the same compound, the AUC [13] was 187000 ng·h/mL, the AUC [14] was 401000 ng·h/mL and the AUC(0-inf) [5] was 19700 ng·h/mL. The AUC(0-inf) [6] was 36800 ng·h/mL, the AUC(0-inf) [7] was 81500 ng·h/mL and the AUC(0-inf) [8] was 148000 ng·h/mL. The AUC(0-inf) [9] was 321000 ng·h/mL.
